Test results published in patent US12115140B2, “Method of treating adenoid cystic carcinoma” (THE TRUSTEES OF COLUMBIA UNIVERSITY IN THE CITY OF NEW YORK, priority 2020, dated 2024).

Assays:
[1] = system: ACCX9 primary cultures; test: Microscope images of ACCX9 primary cultures; type: cell-based, human; conditions: 10 μM, 7 days
Excerpt: FIGS. 3G, 3H and 3I are microscope images of ACCX9 primary cultures treated with DMSO, BMS493 and AGN193109, respectively. […] With reference to FIGS. 3E-3F, combination treatments may be used, based on the use of inverse agonists of RAR/RXR signaling (e.g., BMS493 or AGN193109) as radio-sensitizers and/or chemo-sensitizers (i.e., agents able to increase the cytotoxic activity of radiotherapy and/or chemotherapy).

[2] = system: CD49f^low, KIT^+ (ductal-like) and CD49f^high, KIT^neg (myoepithelial-like) cells of human ACCs; test: Flow cytometry of short-term primary cultures from ACC PDX lines: relative content of ductal-like and myoepithelial-like cells; type: cell-based; conditions: for significance of reduction in percentage of CD49f^low, KIT^+ (ductal-like) cells: at both 1 μM and 10 μM, ACCX5M1 and SGTX6, vs NT or DMSO; for percentage of myoepithelial-like cells (CD49f^high, KIT^neg): ACCX5M1, direct agonists, vs DMSO
Excerpt: From a histological point of view, ACCs are usually characterized by a “bi-phasic differentiation” (i.e., the malignant tissues contain two distinct cell populations, which are commonly referred to as “myoepithelial-like” and “ductal-like” cells). A combination of cell surface markers (CD49f, KIT) have been discovered which enable the differential purification and accurate quantification of the two populations using fluorescence activated cell sorting (FACS). It has further been discovered that myoepithelial-like (CD49f^high, KIT^neg) cells are associated with more aggressive biological properties as compared to ductal-like (CD49f^low, KIT^+) cells when tested for their tumorigenic capacity (i.e., their capacity to sustain the formation of a new tumor upon xeno-transplantation in immuno-deficient mice).
FIGS. 1A-1F and 2A-2D illustrate the in vitro anti-tumor activity of BMS493 against human ACCs. FIGS. 1A and 1B show the results of a short-term primary culture from a patient-derived xenograft (PDX) line representative of human ACCs with “cribriform” histology (ACCX5M1) treated in vitro with BMS493 (10 μM) for 7 days and then analyzed by flow cytometry. FIGS. 1C and 1D show the results of a short-term primary culture from a patient-derived xenograft (PDX) line representative of human ACCs with “cribriform” histology (SGTX6) treated in vitro with BMS493 (10 μM) for 7 days and then analyzed by flow cytometry. FIGS. 1E and 1F show the results of a short-term primary culture from a patient-derived xenograft (PDX) line representative of human ACCs with “cribriform” histology (ACCX6) treated in vitro with BMS493 (10 μM) for 7 days and then analyzed by flow cytometry.
FIGS. 3A-3I illustrate the in vitro anti-tumor activity of BMS493 and AGN193109 against human ACCs. FIGS. 3A and 3B show comparison plots of short-term primary cultures from two patient-derived xenograft (PDX) lines representative of human ACCs with “cribriform” histology (SGTX6 and ACCX5M1, respectively), which were treated in vitro for 7 days with either BMS493 or AGN193109 and then analyzed by flow cytometry.

[3] = system: human ACC primary cultures (ACCX5M1, ACCX9); test: Cell viability / cytotoxic activity in primary cultures of ACC PDX lines; type: cell-based; conditions: for cell viability: ACCX5M1, vs DMSO control cultures, FIG. 3E; for cytotoxic activity: ACCX9 (solid histology), FIG. 3F
Excerpt: With reference to FIGS. 3E-3F, combination treatments may be used, based on the use of inverse agonists of RAR/RXR signaling (e.g., BMS493 or AGN193109) as radio-sensitizers and/or chemo-sensitizers (i.e., agents able to increase the cytotoxic activity of radiotherapy and/or chemotherapy).

[4] = system: ACCX5M1 organoid cultures, ductal-like (CD49f^low, KIT^+) cells; test: Organoid cultures of ACCX5M1 PDX line treated one week: inverse agonists versus neutral antagonist, flow cytometry; type: cell-based, human; conditions: for killing of ductal-like (CD49f^low, KIT^+) cells: ACCs cultured in vitro as three-dimensional (3D) organoids
Protocol: Further, as shown in FIGS. 6A-10, the efficacies of the inverse agonists BMS493 and AGN193109 were compared against a neutral antagonist (BMS195614). For FIGS. 6A-8, organoid cultures from a patient derived xenograft line (ACCX5M1) were treated for one week with DMSO (as a control), the neutral antagonist (BMS195614, 1 μM, 10 μM) or the inverse agonists (BMS493 1 μM, BMS493 10 μM, AGN193109 10 μM). The graphs display the percentage of KIT+ cells in each culture condition. FIG. 6A is a scatter plot displaying the relative content of myoepithelial-like cells and ductal-like cells in a primary in vitro organoid culture of the ACCX5M1 patient-derived xenograft (PDX) line treated with DMSO for 7 days and analyzed by flow cytometry. FIG. 6B is a scatter plot displaying the relative content of myoepithelial-like cells and ductal-like cells in a primary in vitro organoid culture of the ACCX5M1 patient-derived xenograft (PDX) line treated with the neutral antagonist BMS195614 (1 μM) for 7 days and analyzed by flow cytometry. FIG. 6C is a scatter plot displaying the relative content of myoepithelial-like cells and ductal-like cells in a primary in vitro organoid culture of the ACCX5M1 patient-derived xenograft (PDX) line treated with the neutral antagonist BMS195614 (10 μM) for 7 days and analyzed by flow cytometry.
FIG. 7A is a scatter plot displaying the relative content of myoepithelial-like cells and ductal-like cells in a primary in vitro organoid culture of the ACCX5M1 patient-derived xenograft (PDX) line treated with the inverse agonist BMS493 (1 μM) after one week. FIG. 7B is a scatter plot displaying the relative content of myoepithelial-like cells and ductal-like cells in a primary in vitro organoid culture of the ACCX5M1 patient-derived xenograft (PDX) line treated with the inverse agonist BMS493 (10 μM) for 7 days and analyzed by flow cytometry. FIG. 7C is a scatter plot displaying the relative content of myoepithelial-like cells and ductal-like cells in a primary in vitro organoid culture of the ACCX5M1 patient-derived xenograft (PDX) line treated with the inverse agonist AGN193109 (10 μM) for 7 days and analyzed by flow cytometry. FIG. 8 is a bar graph comparing the percentage of ductal-like (CD49f^low, KIT^+) cells after one week from each of the treatments of FIGS. 6A-7C. FIG. 9 is a bar graph comparing the percentage of ductal-like (CD49f^low, KIT^+) cells after one week from the treatments of FIGS. 6A, 6C, 7B and 7C. FIG. 10 is a bar graph comparing the percentage of EpCAM^+/DAPI^+ cells (i.e., dead epithelial cells) after one week from each of the treatments of FIGS. 6A-7C. […] It should be noted that in FIGS. 8-10, BMS195614 has been abbreviated as “BMS195” due to the available space in the Figures.

[5] = system: myoepithelial-like cells (CD49f^high, KIT^neg) isolated by FACS from solid tumors; test: Sorted myoepithelial-like cells (FACS) stimulated in vitro with direct RAR agonist; type: cell-based, human; conditions: ATRA 10 μM (also printed 10 mM), 7 days
[6] = system: CD49f^low, KIT^+ (ductal-like) and CD49f^high, KIT^neg (myoepithelial-like) cells of human ACCs; test: Flow cytometry of short-term primary cultures from ACC PDX lines: relative content of ductal-like and myoepithelial-like cells; type: cell-based; conditions: 10 μM, 7 days; ACCX5M1; direct agonists; vs DMSO
[7] = system: human ACCs engrafted in mice (ACCX5M1, SGTX6, ACCX9); test: In vivo growth kinetics of ACC PDX lines engrafted subcutaneously in NSG immune-deficient mice
Protocol: Three independent patient-derived xenograft (PDX) lines representative of human ACCs (ACCX5M1, SGTX6, ACCX9) were engrafted in the subcutaneous (s.c.) tissue of NOD/SCID/IL2Rγ^−/− (NS G) immune-deficient mice and left growing until they reached a size of approximately 700 mm^3. Tumor-bearing mice were then divided into two cohorts, one of which was treated with BMS493 (40 mg/kg X 3-4 days/week), while the other received only DMSO (i.e., the solvent used as a vehicle to resuspend BMS493).

[8] = system: human ACC tumor cells (PDX lines SGTX6, ACCX6, ACCX9, ACCX11); test: Percentage of dead tumor cells (EpCAM^+/DAPI^+) in primary cultures of ACC PDX lines by flow cytometry; type: cell-based
Excerpt: It should be noted that in FIGS. 2A and 2B, the percentage of dead tumor cells is reported as a percentage of the human epithelial cells that incorporate DAPI (i.e. EpCAM^+/DAPI^+) and excludes any contaminant of mouse cells from the primary tissues that were used to generate the cultures (i.e. excludes cells expressing H-2K^d and/or mCd45).
It should be noted that in FIGS. 2C and 2D, the percentage of dead tumor cells is reported as a percentage of the human epithelial cells that incorporate DAPI (i.e. EpCAM^+/DAPI^+) and excludes any contaminant of mouse cells from the primary tissues that were used to generate the cultures (i.e. excludes cells expressing H-2K^d and/or mCd45).

[9] = 7 days, SGTX6 and ACCX5M1, FIGS. 3A, 3B
[10] = 10 μM, 7 days, ACCX5M1, SGTX6, ACCX6 (cribriform), vs untreated
[11] = ACCX5M1 organoids, one week, FIG. 8

SMILES | cell morphology in microscope images [1] | percentage of CD49f^low, KIT^+ (ductal-like) cells [2, 9] | significance of reduction in percentage of CD49f^low, KIT^+ (ductal-like) cells [2] | cell viability [3] | cytotoxic activity [3] | killing of ductal-like (CD49f^low, KIT^+) cells [4] | percentage of myoepithelial-like cells (CD49f^high, KIT^neg) ([2]; 10 μM, 7 days) | percentage of ductal-like cells (CD49f^low, KIT^+) [6] | further results
Cc1ccc(C2=CCC(C)(C)c3ccc(C#Cc4ccc(C(=O)O)cc4)cc32)cc1 [AGN193109, 4-[2-[5,6-Dihydro-5,5-dimethyl-8-(4-methylphenyl)-2-naphthalenyl]ethynyl]benzoic acid] | widespread cell fragmentation | dramatic reduction | statistically significant | reduction in cell viability | clear cytotoxic activity | able to selectively kill | – | – | –
CC1=C(/C=C/C(C)=C/C=C/C(C)=C/C(=O)O)C(C)(C)CCC1 [ATRA, all-trans retinoic acid] | – | – | – | – | – | – | reduction | increase | differentiation of sorted myoepithelial-like cells into ductal-like cells [5]: differentiation of myoepithelial-like cells
CC1(C)CC=C(C#Cc2ccccc2)c2cc(/C=C/c3ccc(C(=O)O)cc3)ccc21 [BMS493, 4-[(1E)-2-[5,6-Dihydro-5,5-dimethyl-8-(2-phenylethynyl)-2-naphthalenyl]ethenyl]benzoic acid] | widespread cell fragmentation | dramatic reduction | statistically significant | reduction in cell viability | clear cytotoxic activity | able to selectively kill | – | – | tumor growth (change in tumor volume over time) ([7]; 40 mg/kg X 3-4 days/week, ACCX5M1, SGTX6, ACCX9 s.c. in NSG mice, vs DMSO): either growth arrest or tumor shrinkage; activity against human ACCs engrafted in mice ([7]; dosing regimens from 10 mg/kg (once daily X 21 days) up to 40 mg/kg (4 times/week X 3 weeks)): active; percentage of dead (DAPI^+) cells ([8]; ACCX9 and ACCX11 (solid histology)): substantial increase; percentage of dead tumor cells (EpCAM^+/DAPI^+) ([8]; SGTX6 and ACCX6 (cribriform), vs NT, DMSO or ATRA): substantial increase; percentage of CD49f^high, KIT^neg (myoepithelial-like) cells [2, 10]: corresponding relative increase; percentage of CD49f^low, KIT^+ (ductal-like) cells [2, 10]: dramatic reduction; percentage of dead cells (EpCAM^+/DAPI^+) ([4]; ACCX5M1 organoids, one week, BMS493 10 μM, BMS195614 1 μM, 10 μM, FIG. 10): significant increase
CC1(C)CC=C(c2cnc3ccccc3c2)c2cc(C(=O)Nc3ccc(C(=O)O)cc3)ccc21 [BMS195614] | – | – | – | – | – | – | – | – | change in percentage of ductal-like (CD49f^low, KIT^+) cells on raising concentration from 1 μM to 10 μM [4, 11]: does not translate in a significant decrease; percentage of ductal-like (CD49f^low, KIT^+) cells relative to BMS493 and AGN193109 [4, 11]: remains statistically superior; anti-tumor effect relative to inverse agonists BMS493 and AGN193109 ([4]; at both doses, 1 μM and 10 μM): clearly systematically inferior
C=C(c1ccc(C(=O)O)cc1)c1cc2c(cc1C)C(C)(C)CCC2(C)C [bexarotene] | – | – | – | – | – | – | reduction | increase | –
